Experimental data taken from ChEMBL document CHEMBL2074361, “Effect of mdr1a P-glycoprotein gene disruption, gender, and substrate concentration on brain uptake of selected compounds” (Pharm Res, 2001).

Biological target: ATP-dependent translocase ABCB1 (Mus musculus, UniProt P21447)
Test: TP_TRANSPORTER: increase in brain concentration in mdr1a(-/-) mouse
Assay type: functional, organism-based
Conditions: in vivo

ATP-dependent translocase ABCB1, sequence (P21447 whole entry): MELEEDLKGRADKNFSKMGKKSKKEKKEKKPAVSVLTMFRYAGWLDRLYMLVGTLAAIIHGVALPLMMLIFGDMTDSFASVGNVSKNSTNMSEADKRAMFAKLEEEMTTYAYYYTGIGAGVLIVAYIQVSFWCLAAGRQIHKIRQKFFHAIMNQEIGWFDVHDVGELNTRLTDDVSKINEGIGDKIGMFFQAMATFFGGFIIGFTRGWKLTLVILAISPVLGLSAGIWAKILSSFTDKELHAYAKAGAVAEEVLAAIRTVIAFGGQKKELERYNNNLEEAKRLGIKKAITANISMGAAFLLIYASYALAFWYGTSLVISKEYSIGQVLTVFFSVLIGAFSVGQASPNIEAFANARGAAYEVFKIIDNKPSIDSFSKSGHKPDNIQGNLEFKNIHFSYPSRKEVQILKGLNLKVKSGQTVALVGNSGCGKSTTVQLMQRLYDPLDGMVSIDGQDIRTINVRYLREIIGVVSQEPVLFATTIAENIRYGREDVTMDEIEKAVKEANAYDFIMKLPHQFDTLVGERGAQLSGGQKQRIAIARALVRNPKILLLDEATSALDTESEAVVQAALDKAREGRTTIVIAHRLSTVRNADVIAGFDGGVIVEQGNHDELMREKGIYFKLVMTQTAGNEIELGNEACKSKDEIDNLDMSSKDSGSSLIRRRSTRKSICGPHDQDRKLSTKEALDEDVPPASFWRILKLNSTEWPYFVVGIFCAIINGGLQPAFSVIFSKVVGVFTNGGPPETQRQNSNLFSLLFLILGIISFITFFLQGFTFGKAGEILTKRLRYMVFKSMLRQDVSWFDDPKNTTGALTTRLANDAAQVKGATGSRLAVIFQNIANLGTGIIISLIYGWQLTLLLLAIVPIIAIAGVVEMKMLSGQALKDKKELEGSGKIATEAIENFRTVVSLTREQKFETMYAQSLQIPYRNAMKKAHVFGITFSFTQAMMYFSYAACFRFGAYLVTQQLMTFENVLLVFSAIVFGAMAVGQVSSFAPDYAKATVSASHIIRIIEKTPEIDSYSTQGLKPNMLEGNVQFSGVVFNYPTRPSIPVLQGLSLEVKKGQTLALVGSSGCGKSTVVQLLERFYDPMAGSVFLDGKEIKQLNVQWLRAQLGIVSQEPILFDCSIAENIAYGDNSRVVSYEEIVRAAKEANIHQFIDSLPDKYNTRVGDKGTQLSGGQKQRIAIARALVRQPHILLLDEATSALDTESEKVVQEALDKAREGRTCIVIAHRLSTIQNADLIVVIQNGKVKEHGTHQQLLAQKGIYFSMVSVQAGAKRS

SMILES | Activity
CN1CC[C@]23c4c5ccc(O)c4O[C@H]2[C@@H](O)C=C[C@H]3[C@H]1C5 [MORPHINE] | substrate [+]
C=C[C@H]1C[N@@]2CC[C@H]1C[C@@H]2[C@@H](O)c1ccnc2ccc(OC)cc12 [QUINIDINE] | substrate [+]
